Results from patent US11912723B2, “KRAS modulators and uses thereof” (Quanta Therapeutics, Inc., priority 2022, dated 2024).

The compounds below were run against T1, KRAS G12D/RAF1 (Homo sapiens, UniProt P01116, G12D) (assay: Protein-protein interaction (PPI) HTRF assay KRAS G12D/RAF1). Details: KRAS G12D/RAF1, GppNHp-loaded KRAS; 30 minutes pre-incubation.
T1 construct: KRAS (1-169) proteins were expressed in E. coli at 18° C; His6-MBP (N, cleaved yes); made in house; host or cells: E. coli
Assay type: binding
Summary of the method: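 Biotinylated GppNHp-loaded RAS (1-169) on streptavidin-d2 acceptor and His-RAF1 RBD (52-131) on anti-His Tb donor, each prepared at 16 nM in pH 7.5 Tris buffer. Compound preincubated with RAS 30 min, then RAF1 added for 1 h at room temperature. IC50 from HTRF 665/615 ratio, normalized to no compound (0%) and untagged RAF1 (100%).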

T1 sequence (P01116 1-169 isoform P01116-2 G12D): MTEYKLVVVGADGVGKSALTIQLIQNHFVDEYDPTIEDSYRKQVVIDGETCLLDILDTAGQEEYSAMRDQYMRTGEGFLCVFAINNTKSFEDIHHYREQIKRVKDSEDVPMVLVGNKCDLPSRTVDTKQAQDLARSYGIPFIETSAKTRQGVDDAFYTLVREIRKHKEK

Structure (SMILES)	IC50
OC1CCCN(c2nc(OC[C@@]34CCCN3C[C@H](F)C4)nc3c2COC2(CCc4c(Cl)cccc42)C3)CC1 (mixture of isomers) [Compound 6, 1-[4′-chloro-2-[[rac-(2R,8S)-2-fluoro-1,2,3,5,6,7-hexahydropyrrolizin-8-yl]methoxy]spiro[5,8-dihydropyrano[4,3-d]pyrimidine-7,1′-indane]-4-yl]azepan-4-ol]	> 100 µM
CN(C)C(=O)c1cc2n(n1)CCCN(c1nc(OC[C@@]34CCCN3C[C@H](F)C4)nc3c1COC1(CCCc4c(Cl)cc(O)cc41)C3)C2 (mixture of isomers) [Compound 43, 5-[5′-chloro-7′-hydroxy-2-[[rac-(2R,8S)-2-fluoro-1,2,3,5,6,7-hexahydropyrrolizin-8-yl]methoxy]spiro[5,8-dihydropyrano[4,3-d]pyrimidine-7,1′-tetralin]-4-yl]-N,N-dimethyl-4,6,7,8-tetrahydropyrazolo[1,5-a][1,4]diazepine-2-carboxamide]	10 to 100 µM
C=C1CN2CCCC2(COc2nc3c(c(N4CCCn5nc(C(=O)N(C)C)c(Cl)c5C4)n2)CO[C@@]2(CCc4c(Cl)cccc42)C3)C1 (mixture of isomers) [Compound 54, 3-chloro-N,N-dimethyl-5-[rac-(7S)-4′-chloro-2-[(6-methylene-2,3,5,7-tetrahydro-1H-pyrrolizin-8-yl)methoxy]spiro[5,8-dihydropyrano[4,3-d]pyrimidine-7,1′-indane]-4-yl]-4,6,7,8-tetrahydropyrazolo[1,5-a][1,4]diazepine-2-carboxamide]	10 to 100 µM
Oc1ccc2c(c1)C1(CCC2)Cc2nc(OC[C@@]34CCCN3C[C@H](F)C4)nc(N3CCCCCC3)c2CO1 (single isomer, unassigned) [Compound 7]	> 100 µM
Oc1ccc2c(c1)C1(CCC2)Cc2nc(OC[C@@]34CCCN3C[C@H](F)C4)nc(N3CCCCCC3)c2CO1 (single isomer, unassigned) [Compound 8]	> 100 µM
O=C1NC(=O)C2(CCCN(c3nc(OC[C@@]45CCCN4C[C@H](F)C5)nc4c3COC3(CCc5c(Cl)cccc53)C4)C2)N1 (single isomer, unassigned) [Compound 24A, (5*)-9-[(7*)-4′-chloro-2-[[(2R,8S)-2-fluoro-1,2,3,5,6,7-hexahydropyrrolizin-8-yl]methoxy]spiro[5,8-dihydropyrano[4,3-d]pyrimidine-7,1′-indane]-4-yl]-1,3,9-triazaspiro[4.5]decane-2,4-dione]	10 to 100 µM
F[C@H]1CN2CCC[C@@]2(COc2nc3c(c(N4CCCCCC4)n2)COC2(CCc4c(Cl)cccc42)C3)C1 (stereo partly drawn) [Compound 1, 4′-(azepan-1-yl)-4-chloro-2′-(((2R,7aS)-2-fluorotetrahydro-1H-pyrrolizin-7a(5H)-yl)methoxy)-2,3,5′,8′-tetrahydrospiro[indene-1,7′-pyrano[4,3-d]pyrimidine]]	> 100 µM
F[C@H]1CN2CCC[C@@]2(COc2nc3c(c(N4C[C@H]5CC[C@@H](C4)N5)n2)COC2(CCc4c(Cl)cccc42)C3)C1 (stereo partly drawn) [Compound 2, 4′-((1R,5S)-3,8-diazabicyclo[3.2.1]octan-3-yl)-4-chloro-2′-(((2R,7aS)-2-fluorotetrahydro-1H-pyrrolizin-7a(5H)-yl)methoxy)-2,3,5′,8′-tetrahydrospiro[indene-1,7′-pyrano[4,3-d]pyrimidine]]	10 to 100 µM
OC1CCCN(c2nc(OC[C@@]34CCCN3C[C@H](F)C4)nc3c2COC2(CCCc4ccc(Br)cc42)C3)CC1 (stereo partly drawn) [Compound 4, 1-[7′-bromo-2-[[(2R,8S)-2-fluoro-1,2,3,5,6,7-hexahydropyrrolizin-8-yl]methoxy]spiro[5,8-dihydropyrano[4,3-d]pyrimidine-7,1′-tetralin]-4-yl]azepan-4-ol]	> 100 µM
F[C@H]1CN2CCC[C@@]2(COc2nc3c(c(N4CCCCCC4)n2)COC2(CCCc4c(Br)cccc42)C3)C1 (stereo partly drawn) [Compound 5, 4-(azepan-1-yl)-5′-bromo-2-[[(2R,8S)-2-fluoro-1,2,3,5,6,7-hexahydropyrrolizin-8-yl]methoxy]spiro[5,8-dihydropyrano[4,3-d]pyrimidine-7,1′-tetralin]]	10 to 100 µM
F[C@H]1CN2CCC[C@@]2(COc2nc3c(c(N4C[C@H]5CC[C@@H](C4)N5)n2)COC2(CCCc4c(Br)cccc42)C3)C1 (stereo partly drawn) [Compound 10, 5′-bromo-4-(3,8-diazabicyclo[3.2.1]octan-3-yl)-2-[[(2R,8S)-2-fluoro-1,2,3,5,6,7-hexahydropyrrolizin-8-yl]methoxy]spiro[5,8-dihydropyrano[4,3-d]pyrimidine-7,1′-tetralin]]	> 100 µM
Oc1ccc2c(c1)C1(CCC2)Cc2nc(OC[C@@]34CCCN3C[C@H](F)C4)nc(N3CCCC(O)CC3)c2CO1 (stereo partly drawn) [Compound 14, 2-[[(2S,8R)-2-fluoro-1,2,3,5,6,7-hexahydropyrrolizin-8-yl]methoxy]-4-(4-hydroxyazepan-1-yl)spiro[5,8-dihydropyrano[4,3-d]pyrimidine-7,4′-tetralin]-6′-ol]	> 100 µM
OC1CCCN(c2nc(OC[C@@]34CCCN3C[C@H](F)C4)nc3c2COC2(CCCc4c(Cl)cccc42)C3)CC1 (stereo partly drawn) [Compound 15, 1-[5′-chloro-2-[[(2R,8S)-2-fluoro-1,2,3,5,6,7-hexahydropyrrolizin-8-yl]methoxy]spiro[5,8-dihydropyrano[4,3-d]pyrimidine-7,1′-tetralin]-4-yl]azepan-4-ol]	> 100 µM
N#CC1CCCN(c2nc(OC[C@@]34CCCN3C[C@H](F)C4)nc3c2COC2(CCc4c(Cl)cccc42)C3)CC1 (stereo partly drawn) [Compound 16, 1-(4-chloro-2′-(((2R,7aS)-2-fluorotetrahydro-1H-pyrrolizin-7a(5H)-yl)methoxy)-2,3,5′,8′-tetrahydrospiro[indene-1,7′-pyrano[4,3-d]pyrimidin]-4′-yl)azepane-4-carbonitrile]	> 100 µM
OC1CCCN(c2nc(OC[C@@]34CCCN3C[C@H](F)C4)nc3c2COC2(CCCc4ccc(Cl)cc42)C3)CC1 (stereo partly drawn) [Compound 17, 1-(7-chloro-2′-(((2R,7aS)-2-fluorotetrahydro-1H-pyrrolizin-7a(5H)-yl)methoxy)-3,4,5′,8′-tetrahydro-2H-spiro[naphthalene-1,7′-pyrano[4,3-d]pyrimidin]-4′-yl)azepan-4-ol]	10 to 100 µM
F[C@H]1CN2CCC[C@@]2(COc2nc3c(c(N4CCC=CCC4)n2)COC2(CCc4c(Cl)cccc42)C3)C1 (stereo partly drawn) [Compound 18, 4′-chloro-2-[[(2R,8S)-2-fluoro-1,2,3,5,6,7-hexahydropyrrolizin-8-yl]methoxy]-4-(2,3,6,7-tetrahydroazepin-1-yl)spiro[5,8-dihydropyrano[4,3-d]pyrimidine-7,1′-indane]]	10 to 100 µM
CN(C)C(=O)c1cc2n(n1)CCCN(c1nc(OC[C@@]34CCCN3C[C@H](F)C4)nc3c1CO[C@]1(CCc4c(Cl)cccc41)C3)C2 [Compound 27B, 5-[(7R)-4′-chloro-2-[[(2R,8S)-2-fluoro-1,2,3,5,6,7-hexahydropyrrolizin-8-yl]methoxy]spiro[5,8-dihydropyrano[4,3-d]pyrimidine-7,1′-indane]-4-yl]-N,N-dimethyl-4,6,7,8-tetrahydropyrazolo[1,5-a][1,4]diazepine-2-carboxamide]	10 to 100 µM
CN1Cc2c(nc(OC[C@@]34CCCN3C[C@H](F)C4)nc2N2CCCCCC2)C[C@]12CCc1c(Cl)cccc12 [Compound 28A, (7S)-4-(azepan-1-yl)-4′-chloro-2-[[(2R,8S)-2-fluoro-1,2,3,5,6,7-hexahydropyrrolizin-8-yl]methoxy]-6-methyl-spiro[5,8-dihydropyrido[4,3-d]pyrimidine-7,1′-indane]]	> 100 µM
